Details: rat, in vivo, po, 10 mg
Description: The compound was dissolved in 5 ml of distilled water and then made up to 10 ml with distilled water to make a solution of 5 mg/ml concentration. For group 1 (G1), a dose volume of 2 ml formulation containing 10 mg of reference standard was administered to each rat irrespective of the body weight. Test formulation is as provided in example 5B. Test formulation was used as such as the formulation is in gel form for dermal application. 3 gm of the gel formulation containing 10 mg of test cynacobalamine is a test formulation.
One day prior to the dermal application of test item formulation for group 2 (G2) rats, the hair from the back of each rat was removed using hair removal cream and washed with saline. On the day of experiment, the shaved area was wiped with 70% isopropyl alcohol and dried. […] Immediately after application, the area was covered with non-absorbable cotton and was secured with adhesive tape.
Blood was collected through retro orbital plexus using capillary at specified time points i.e. 0.5 hr, 1.0 hr, 3.0 hr, 6.0 hr & 24.0 hrs post-dose. To collect the serum sample, the tubes were kept for 30 min. at room temperature and allowed for coagulation and then separated by centrifugation the tubes at 3000 rpm for 10 min at 4° C.

**Q.** With Cynacobalamine [Oral] as the substance, how does the “AUC (0-∞)” value read?
**A.** 2775.15 ng·h/mL

**Q.** And the “Cmax” value?
**A.** 205.67 ng/mL

**Q.** And the “Tmax” value?
**A.** 1 h

Reference: patent US20200016078A1, “COMPOSITION FOR TRANSDERMAL DELIVERY OF MICRONUTRIENTS AND METHOD OF PREPARATION THEREOF” (CERELIA NUTRITECH PVT LTD, priority 2017, published 2020)
